# Laboratory results published in the METLIN SMRT retention time set (Domingo-Almenara et al. 2019).
# Assay: gradient 5% acetonitrile 3 min, to 50% in 2 min, to 85% in 15 min, held 3 min, 100 µL/min
# Settings: column: Zorbax Extend-C18 2.1 x 50 mm; eluents: water / acetonitrile, 0.1% formic acid
# Summary of the method: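 A Zorbax Extend-C18 column (2.1 × 50 mm, 1.8 μm) run at 100 μL/min with water and acetonitrile, both containing 0.1% formic acid, separated mixtures of ~100 pure standards. The HPLC was coupled to a quadrupole time-of-flight mass spectrometer operated in positive and negative ionization mode, with dead and dwell volumes of 40 μL and 900 μL. Each retention time was taken from a computationally picked adduct peak that was then manually inspected.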
row,RP-LC retention time [s],Compound
1,1100,Cc1ccc(NC(=O)Cn2nc(N3CCCCCC3)c3ccccc3c2=O)c(C)c1
2,756,COC(=O)c1cc(OCC(=O)Nc2ccccc2F)c2cc(OC)c(OC)cc2n1
3,780,O=C(c1cn(-c2cc(N3CCSCC3)ncn2)cn1)N1CCCc2ccccc21
4,569,Cc1ccc(OCCOCC(O)CN(CCO)CCO)cc1C (centres undefined)
5,705,COC(=O)c1ccc(Cl)cc1NC(=O)N(C)Cc1nc2cc(C(=O)N(C)C)ccc2n1C
6,630,COC(=O)c1cc(S(=O)(=O)N2CCN(c3ccccn3)CC2)c(C)n1C
7,738,COc1ccc(-c2noc(-c3ccc(N4CCC(N5CCCCC5)CC4)nc3)n2)cc1
8,1010,COc1ccc(Cc2noc(Cc3nnc(-c4cccc(Cl)c4)o3)n2)cc1
9,662,O=C(CN1C(=O)CCc2cc(Br)ccc21)NCCN1CCc2ccccc2C1
10,702,COc1ccc(OC)c(CN2CCCC(OCc3noc(-c4ccoc4)n3)C2)c1 (centres undefined)
11,769,COC(=O)c1ccc(-c2nc3cnccn3c2Nc2ccc(OC)c(OC)c2)cc1
12,794,Cn1nccc1C(=O)N1CCCC1c1nc(-c2ccc(F)cc2F)no1 (centres undefined)
13,881,COc1ccc(-c2nc(-c3ccc4ncn(C(C)C)c4c3)no2)c(C)c1
14,617,COc1ccc(N2CCN(C(=O)COc3nccc(C)n3)CC2)cc1
15,642,CC(=O)N1CCc2cc(N3CC(C(=O)NC4CCCC4)CC3=O)ccc21 (centres undefined)
16,732,CCn1cnc(S(=O)(=O)N2CCC(C(=O)Nc3cccc4ccccc34)CC2)c1
17,738,O=C(NC1CC1)C1COC2(CCN(C(=O)c3cccc(Cl)c3)CC2)N1C(=O)c1cccc(F)c1 (centres undefined)
18,696,O=C(Nc1ccc(F)cc1)C1CCN(c2cc(N3CCCCC3)ncn2)CC1
19,577,O=C1NCCCCCN(C(=O)Nc2ccccc2)[C@H]2CCCC[C@@H]12
20,745,O=C(Cn1nc2c3cc(F)ccc3ncn2c1=O)Nc1ccc(Br)cc1
21,616,CC(=O)N1CCc2cc(-c3ccc(C(=O)NCCCN4CCCCC4)cc3)ccc21
22,1030,CSc1ccc(-c2noc(Cn3nc(-c4ccccc4Cl)ccc3=O)n2)cc1

row,RP-LC retention time [s],Compound
1,707,O=C(Cn1ccc2cc(S(=O)(=O)N3CCCCCC3)ccc21)N1CCN(c2ccccn2)CC1
2,849,Cc1ccc(NS(=O)(=O)c2cc3c(=O)n(C)ncn3c2)cc1C
3,690,Cc1ccc(NS(=O)(=O)c2cc(-c3[nH]ncc3C(=O)N(C)C)oc2C)cc1
4,784,Cc1c(Cl)cccc1NC(=O)C1CCCN(c2nnc(C)c3c(C)n(-c4ccccc4)nc23)C1 (centres undefined)
5,724,O=C1NCCCn2cc(S(=O)(=O)N3CCN(c4ccccc4)CC3)cc21
6,542,CCCNc1cc(N2CCC(CCC(=O)NCCc3cccnc3)CC2)ncn1
7,982,Cc1ccc(S(=O)(=O)C2=C(O)C(=O)N(Cc3ccco3)C2c2ccc(Cl)cc2)cc1 (centres undefined)
8,610,CCc1cc(=O)n(CC(=O)NCc2ccc(C)cc2)c(N)n1
9,705,Clc1cccc(-c2nnc(-c3nc(NCc4cccnc4)c4ccccc4n3)o2)c1
10,831,CCC(=O)N(CCOC)CC(=O)N1CCc2sccc2C1COc1ccccc1F (centres undefined)
11,819,Cc1ccc(NC(=O)CN2C(=O)CSC(C)C2=O)cc1Cl (centres undefined)
12,672,COc1ccc(OC)c(CNC(=O)C2CCCN(c3nnc4cccc(C)n34)C2)c1 (centres undefined)
13,754,O=C(c1ccccc1)N1CCN(c2cc(-c3cccs3)[nH]n2)CC1
14,863,COc1ccc(-c2nc3cnccn3c2Nc2ccccc2OC)cc1
15,558,Cn1ccc(CN2CCN(Cc3cccc(F)c3)CC2)cc1=O
16,855,COc1cc(OC)cc(C(=O)N2CCN(c3cc(=O)n(C(C)C)c(=O)n3C(C)C)CC2)c1
17,694,Cn1nc(-c2ccc(F)cc2)cc1C(=O)NCc1n[nH]c(=O)c2ccccc12
18,702,Cn1c(SCC(N)=O)nnc1-c1sc2cc(Cl)ccc2c1Cl
19,812,Cn1c(=O)sc2cc(S(=O)(=O)N3CCC(C(=O)Nc4ccc5c(c4)OCCO5)CC3)ccc21
20,610,COc1ccc(CC(=O)Nc2cccc(-c3cn4cccnc4n3)c2)cc1
21,775,CC(=O)Nc1cccc(N2CC(C(=O)Nc3cccc(C(F)(F)F)c3)CC2=O)c1 (centres undefined)
22,783,COc1ccc(-c2csc(SCc3ccc(C(=O)N4CCOCC4)o3)n2)cc1OC

row,RP-LC retention time [s],Compound
1,752,Cc1sc(NC(=O)CCCC(=O)O)nc1-c1ccccc1
2,576,CN(C)CCNC(=O)c1cc2n(n1)CC(C)(C(=O)NCc1ccc(F)cc1)N(C)C2=O (centres undefined)
3,969,Cc1ccc(-c2nnc(-c3ccccc3Cl)o2)cc1S(=O)(=O)N1CCOCC1
4,911,COc1ccccc1-c1noc(Cn2c(=O)n(-c3ccc(C)cc3)c(=O)c3sccc32)n1
5,697,COc1cc(NC(=O)Cn2nc3c4cc(F)ccc4ncn3c2=O)cc(OC)c1
6,1100,CCc1ccc(NC(=O)c2cn(CC)nc2S(=O)(=O)N2CCSCC2)cc1
7,846,COc1ccc(C(=O)NCCC2=CCCCC2)cc1
8,574,Cc1oc(-c2[nH]ncc2C(=O)N2CCCC2)cc1S(=O)(=O)NCc1cccnc1
9,985,CCc1cc(C(=O)NCc2ccc(C)cc2)nc2ccnn12
10,605,O=C(C1CCN(c2ccc(-n3cccn3)nn2)CC1)N1CCN(c2ncccn2)CC1
11,675,Cc1[nH]c(C(=O)N2CCC(CC(=O)NCCCN3CCN(c4ccc(F)cc4)CC3)CC2)c(C)c1C
12,976,Cc1nc(-c2ccc3c(c2)CCN3C(=O)COc2ccc(Cl)cc2)no1
13,631,CC(C)(C)C(=O)N1C[C@@H](CO)[C@H](c2nc(-c3ccncc3)no2)C1
14,813,CCCCN(CC)C(=O)c1cc2c(=O)n3ccccc3nc2n1C
15,743,CCNC(=O)c1nccnc1NC(=O)c1ccccc1
16,1090,Cc1[nH]nc(-c2c(C)sc(C)c2S(=O)(=O)NCC(C)c2ccccc2)c1C (centres undefined)
17,747,Cc1cccc(-c2noc(-c3ccc(=O)n(Cc4cccnc4)c3)n2)c1
18,886,Cc1nc(C)c(C(=O)Nc2nc(-c3ccccc3)cs2)s1
19,1100,CCCNC(=O)c1cc2c(-c3cccs3)nn(-c3ccccc3)c2n1CC
20,973,COc1ccc([N+](=O)[O-])cc1NC(=O)c1cnc(N2CCN(c3ncccn3)CC2)c2ccccc12
21,710,Cc1cc(C)cc(NC(=O)Cn2cnc(C)c(C)c2=O)c1
22,900,Cc1ccc(S(=O)(=O)c2cnc(N3CCC4(CC3)OCCO4)nc2N)cc1C

row,RP-LC retention time [s],Compound
1,668,O=C(NC1CCCCC1N1C(=O)CSC1=O)c1ccco1 (centres undefined)
2,1080,COc1ccccc1-c1nc(Cc2noc(-c3cccc(F)c3)n2)c(C)o1
3,1120,CCCOc1ccc(-c2nc(-c3ccc(N)cc3)cs2)cc1
4,609,CCN1C(=O)CN(C(=O)c2ccoc2)CC12CCOCC2
5,708,O=C([C@@H]1C[C@H](F)CN1C(=O)Nc1cccc(F)c1)N1CCCCC1
6,942,Cc1ccccc1-n1ccn(Cc2nc(-c3ccc(F)c(Cl)c3)no2)c(=O)c1=O
7,608,CCNc1cc(N2CCC(CCC(=O)N3CCCC3)CC2)ncn1
8,1300,O=[N+]([O-])c1ccc(NN=C(c2ccccc2)c2ccccc2)nc1
9,831,COc1ccc(NC(=O)c2c(F)cccc2F)c([N+](=O)[O-])c1
10,806,CN1C(=O)COc2ccc(-c3csc(NC(=O)c4ccco4)n3)cc21
11,655,CCC1CN2C=NC(N3CCN(C(=O)Nc4ccc(SC)cc4)CC3)=CC2=N1 (centres undefined)
12,816,Cc1cccc(-c2cc(C(N)=O)c3ccccc3n2)c1
13,610,O=C(NCCCN1CCOCC1)c1cc(-c2ccccc2)nc2n[nH]c(-c3ccccc3)c12
14,830,COCc1noc([C@@H]2CC(F)(F)CN2C(=O)CC(C)(C)C)n1
15,798,Cc1ccc(N2CCC(NC(=O)Nc3ccc4c(c3)OCCO4)C2=O)cc1C (centres undefined)
16,612,CCN1CCN(CCNC(=O)Cc2cccn2-c2ccc(Cl)cc2)CC1
17,1270,O=C(CC1C=Cc2ccccc2N1C(=O)c1ccccc1)c1ccccc1 (centres undefined)
18,679,Cc1ccc(CNC(=O)c2csc(-c3ccc(N4CCCC4)nc3)n2)o1
19,550,CN(C)c1ccc(CNC(=O)C2CCN(S(=O)(=O)c3cn(C)cn3)CC2)cc1
20,1030,CCc1ccc(NC(=O)C(C)Oc2cc(C(F)(F)F)c3c(C)nn(C)c3n2)cc1 (centres undefined)
21,698,Nc1cc(C2CCN(C(=O)Nc3ccccc3C(F)(F)F)CC2)no1
22,815,COc1cccc(CNC(=O)N2CCCC(C)(C(=O)NCc3ccc(F)cc3)C2)c1 (centres undefined)

row,Compound,RP-LC retention time [s]
1,Cc1ccc(S(=O)(=O)CCc2noc(C(=O)N3CCC4(CC3)OCCO4)n2)cc1,816
